# According to PubChem BioAssay (NCI):
# “And” between values parts separate entries of the source, which are not always exact repeats. Equal values may be shown once.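 The compound was tested at five concentrations on cells cultured in 96-well plates, with a 48-hour exposure period. At the GI50, growth is halved. TGI is the concentration that stops growth completely.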
# What was measured:
# Test in all cases: DTP human tumour cell line panel, 48 h
# A549 NSCLC = test system: A549 NSCLC
# HCC-2998 colon = test system: HCC-2998 colon
# HCT-15 colon = test system: HCT-15 colon
# HS 578T breast = test system: HS 578T breast
# MCF7 breast = test system: MCF7 breast
# NCI-H522 lung = test system: NCI-H522 lung
# OVCAR-5 ovarian = test system: OVCAR-5 ovarian
# RPMI-8226 leukemia = test system: RPMI-8226 leukemia
# SK-MEL-2 melanoma = test system: SK-MEL-2 melanoma
# SK-OV-3 ovarian = test system: SK-OV-3 ovarian
# SNB-75 CNS = test system: SNB-75 CNS
# U251 CNS = test system: U251 CNS
# UACC-62 melanoma = test system: UACC-62 melanoma
# A498 renal = test system: A498 renal
# SF-539 CNS = test system: SF-539 CNS
SMILES,TGI (A549 NSCLC) [µM],TGI (HCC-2998 colon) [µM],TGI (HCT-15 colon) [µM],TGI (HS 578T breast) [µM],TGI (MCF7 breast) [µM],TGI (NCI-H522 lung),TGI (OVCAR-5 ovarian) [µM],TGI (RPMI-8226 leukemia) [µM],TGI (SK-MEL-2 melanoma) [µM],TGI (SK-OV-3 ovarian) [µM],TGI (SNB-75 CNS),TGI (U251 CNS) [µM],TGI (UACC-62 melanoma),TGI (A498 renal) [µM],TGI (SF-539 CNS),GI50 (A498 renal) [µM],GI50 (HCT-15 colon) [µM],GI50 (HS 578T breast) [µM],GI50 (OVCAR-5 ovarian) [µM],GI50 (SNB-75 CNS) [µM]
CCC(=O)N1C(=O)C(CC)(CC)C(=O)N1C(=O)CC,> 100,> 100,> 100,> 100,> 100,> 100 µM,> 100,> 100,> 100,> 100,> 100 µM,> 100,> 100 µM,–,–,–,–,–,–,–
CC(C)=CCC[C@@H](C)C1=CC(=O)C(C)=C(O)C1=O,25,32.9,8.08,21.1,16,2.78 µM,27.5,5.64,26.3,31.8,14 µM,38.7,24.1 µM,34.9,–,–,–,–,–,–
C[C@@]12C[C@@H](c3ccccc3O1)N1Cc3ccccc3CSC1=N2,–,> 100,> 100,> 100,> 100,> 100 µM,> 100,> 100,> 100,> 100,> 100 µM,> 100,> 100 µM,> 100,> 100 µM,–,–,–,–,–
O=C1O[C@H]2C3C4CCC(C4[C@@H]2I)[C@H]13 (stereo not given in full),> 100,> 100,> 100,> 100,> 100,> 100 µM,> 100,> 100,> 100,–,> 100 µM,> 100,> 100 µM,> 100,> 100 µM,–,–,–,–,–
CO[C@]12CC(=O)C3(C(C[C@H]4CC5CC[C@H]6C[C@@H](OC(C)=O)CC[C@]6(OC(C)=O)C5C[C@@]43C)C1)C1C[C@H]3[C@@H]4CC[C@H]5C[C@@H](OC(C)=O)CC[C@]5(OC(C)=O)[C@H]4CC[C@]3(C)C12 (stereo not given in full),> 100,> 100,> 100,> 100,> 100,–,> 100,> 100,> 100,> 100,> 100 µM,> 100,> 100 µM,> 100,> 100 µM,–,–,–,–,–
O=C(N[C@H]1CCC[C@H]1C(=O)Nc1ccc(C(F)(F)F)cc1)OCc1ccccc1,> 100,> 100,> 100,> 100,> 100,> 100 µM,> 100,> 100,> 100,> 100,–,> 100,> 100 µM,> 100,> 100 µM,–,–,–,–,–
CC(=O)O[C@H]1C[C@](C)(O)[C@@]23CC([C@@H](OC(=O)C(C)(C)O)[C@@H](OC(C)=O)C2(COC(=O)c2ccccc2)[C@H]1OC(C)=O)C(C)(C)O3 (stereo not given in full),> 100,> 100,> 100,> 100,> 100,> 100 µM,> 100,> 100,> 100,> 100,–,> 100,> 100 µM,> 100,> 100 µM,–,–,–,–,–
CN(C)C=NCC(O)c1ccccc1 (stereo not given),> 100,–,> 100,> 100,> 100,> 100 µM,> 100,> 100,> 100,> 100,> 100 µM,–,> 100 µM,> 100,> 100 µM,–,–,–,–,–
S=C(N/N=C(\C(=N/NC(=S)N1CCCCC1)c1ccccn1)c1ccccn1)N1CCCCC1,> 100,> 100,> 100,> 100,> 100,> 100 µM,> 100,> 100,–,> 100,> 100 µM,> 100,> 100 µM,90.1,> 100 µM,–,–,–,–,–
CC(C)C1=C(Cc2ccccc2)C(=O)O/C1=C\c1ccc(O)c(Cl)c1,28.4,28.7,29.6,33.9,30.3,–,32.3,28.1,–,33.7,30.6 µM,30.3,28 µM,31.4,33.2 µM,–,–,–,–,–
COc1ccc(C2C(C#N)=C(S)N(C3OC(CO)C(O)C(O)C3O)C(C)=C2C(C)=O)cc1 (stereo not given),> 100,> 100,> 100,> 100,> 100,> 100 µM,> 100,> 100,> 100,–,> 100 µM,> 100,> 100 µM,> 100,> 100 µM,–,–,–,–,–
CCN(CC)c1ccc2cc(C(N)=O)c(=Nc3ccc(F)cc3)oc2c1,> 100,> 100,> 100,> 100,> 100,> 100 µM,> 100,> 100,> 100,> 100,47 µM,> 100,> 100 µM,> 100,–,–,–,–,–,–
O=S(c1ccc(Cl)cc1)c1ccccc1C1=NCCN1 (stereo not given),> 100,> 100,> 100,> 100,> 100,> 100 µM,> 100,> 100,> 100,> 100,> 100 µM,> 100,> 100 µM,–,–,–,–,–,–,–
COc1ccc(C2=NNC(c3cc4cc(Br)ccc4nc3Cl)C2)cc1 (stereo not given),–,> 25,–,24.2,> 25,–,> 25,> 25,> 25,–,> 25 µM,–,> 25 µM,> 25,–,–,–,–,–,–
Cc1c2oc3c(C)cc(F)c(C(=O)NC4C(=O)NC(C(C)C)C(=O)N5CCCC5C(=O)N(C)CC(=O)N(C)C(C(C)C)C(=O)OC4C)c3nc-2c(C(=O)NC2C(=O)NC(C(C)C)C(=O)N3CCCC3C(=O)N(C)CC(=O)N(C)C(C(C)C)C(=O)OC2C)c(N)c1=O (stereo not given),–,–,> 100,> 100,60.6,1.66 µM and 1.95 µM,10.2,–,0.663,> 100,1.9 µM and 1.75 µM,25.9,0.492 µM and 0.154 µM,0.902,1.41 µM and 0.727 µM,0.85,0.42,0.5,0.0688,0.121
COc1cc([C@@H]2c3cc4c(cc3[C@@H](c3c(O)cc(O)c5c3O[C@H](c3ccc(O)c(O)c3)[C@H](OC(=O)c3cc(O)c(O)c(O)c3)C5)[C@H]3COC(=O)[C@H]23)OCO4)cc(OC)c1O,99.2,92.3,> 100,> 100,> 100,> 100 µM,> 100,> 100,> 100,> 100,–,> 100,> 100 µM,> 100,60.1 µM,–,–,–,–,–

SMILES,TGI (A549 NSCLC) [µM],TGI (HCC-2998 colon) [µM],TGI (HCT-15 colon) [µM],TGI (HS 578T breast) [µM],TGI (MCF7 breast) [µM],TGI (NCI-H522 lung),TGI (OVCAR-5 ovarian) [µM],TGI (RPMI-8226 leukemia) [µM],TGI (SK-MEL-2 melanoma) [µM],TGI (SK-OV-3 ovarian) [µM],TGI (SNB-75 CNS),TGI (U251 CNS) [µM],TGI (UACC-62 melanoma),TGI (A498 renal) [µM],TGI (SF-539 CNS),GI50 (A498 renal) [µM],GI50 (HCT-15 colon) [µM],GI50 (HS 578T breast) [µM],GI50 (OVCAR-5 ovarian) [µM],GI50 (SNB-75 CNS) [µM]
C[C@]12CC[C@H](O)CC1=CC[C@@H]1[C@@H]2CC[C@]2(C)C(=O)/C(=C/c3ccc([N+](=O)[O-])cc3)C[C@@H]12,29.8,> 100,> 100,29.5,> 100,30.6 µM,50.9,> 100,36.5,22.6,9.67 µM,–,> 100 µM,30.4,20.9 µM,–,–,–,–,–
Cn1c(COC(=O)NC2CCCCC2)c(COC(=O)NC2CCCCC2)c2ccc3cc(C=O)ccc3c21,> 100,> 100,> 100,> 100,> 100,–,> 100,–,> 100,> 100,60.8 µM,87.5,> 100 µM,> 100,> 100 µM,–,–,–,–,–
CC(=O)OCC1OC(n2c(N)c(C#N)c(-c3cccc(Cl)c3)c(C#N)c2=S)C(OC(C)=O)C(OC(C)=O)C1OC(C)=O (stereo not given),> 100,22.7,> 100,91.5,> 100,–,> 100,39.7,45.2,57.1,56.2 µM,78.9,> 100 µM,45.5,27.7 µM,–,–,–,–,–
OC1(c2ccc(Cl)cc2)c2c(c3ccccc3c3ccccc23)C2=NCCN21 (stereo not given),59,6.85,> 100,18.6,41.7,–,46,> 100,36.7,31.3,7.52 µM,30.8,32 µM,43.7,24.5 µM,–,–,–,–,–
COC1=CC(=O)c2nc3ccccc3c3ccnc1c23,13.9,11.8,13.5,> 47,15.2,20.5 µM,29.7,> 65.5,21.8,> 100,46.1 µM,> 67.3,2.95 µM,–,13.3 µM,–,–,–,–,–
CN(C)CC1CCCc2ccccc2C1=O (stereo not given),39.5,12,4.55,16.3,0.644,–,33.5,0.21,4,32.7,56.2 µM,3.12,6.18 µM,49.6,10.1 µM,–,–,–,–,–
CN(/N=C/c1ccc(Cl)cc1)C1=NCCCCN1,> 100,> 100,> 100,> 100,> 100,> 100 µM,> 100,> 100,–,> 100,> 100 µM,> 100,> 100 µM,> 100,> 100 µM,–,–,–,–,–
COc1cc(O)cc(O)c1C(=O)CC(Cl)(Cl)Cl,> 100,> 100,> 100,> 100,> 100,> 100 µM,> 100,> 100,–,> 100,–,> 100,> 100 µM,> 100,> 100 µM,–,–,–,–,–
CC1(C)CN=CC(C)(OCc2ccccc2)C(=O)NC(C)(C)CN=CC(C)(OCc2ccccc2)C(=O)N1 (stereo not given),> 10,> 10,> 10,> 10,> 10,–,> 10,> 10,> 10,> 10,> 10 µM,> 10,> 10 µM,> 10,> 10 µM,–,–,–,–,–
COc1cc(S(=O)(=O)Nc2ccc(-c3csc(N4C(=O)C(C)SC4c4ccccc4)n3)cc2)ccc1Cl (stereo not given),> 100,–,> 100,> 100,43.2,> 100 µM,> 100,> 100,21.5,–,32.7 µM,–,52.8 µM,> 100,> 100 µM,–,–,–,–,–
CC(=O)c1ccc2c3c1O[C@H]1c4[nH]c5ccccc5c4C[C@@]4(O)[C@@H](C2)N(CC2CC2)CC[C@]314,21.3,–,25.3,15.2,30.4,35.3 µM,28.1,45.1,30.9,35.9,–,26.1,30.7 µM,16.1,29.3 µM,–,–,–,–,–
CS(=O)(=O)OCC1CCCCCCCCCCC12SCCCS2 (stereo not given),> 100,> 100,> 100,> 100,> 100,> 100 µM,> 100,–,> 100,> 100,–,> 100,> 100 µM,> 100,> 100 µM,–,–,–,–,–
Cc1ccc2c(=O)cc(Cc3csc4ccccc34)[nH]c2n1,> 100,–,55.8,46.9,> 100,53.3 µM,> 100,> 100,> 100,> 100,79.6 µM,> 100,> 100 µM,> 100,–,–,–,–,–,–
O=C1CCCCN1C(=O)c1ccc([N+](=O)[O-])cc1,> 100,> 100,> 100,> 100,> 100,> 100 µM,> 100,> 100,–,–,> 100 µM,> 100,> 100 µM,> 100,> 100 µM,–,–,–,–,–
N#Cc1ccc2[nH]c3c(c2c1)CC(=O)Nc1ccccc1-3,> 100,> 100,> 100,> 100,> 100,> 100 µM,> 100,> 100,> 100,–,> 100 µM,> 100,> 100 µM,> 100,> 100 µM,–,–,–,–,–
